Source: patent publication US11987404B2, “Method for filling containers with a powder” (NTC S.R.L., priority 2019, dated 2024)

Key:
Type in all cases: physicochemical
[1] = Long term stability 25° C./60% RH in heat-sealed envelope; settings: long-term stability in the climatic area II
Experimental: (§1) The stability of the mannitol in the form of powder object of the present invention was tested, housed inside a heat-sealed envelope in compostable material. 50 grams of said powder were stored for 6 months at 40° C./75% RH (Test 1) and for 6 months at 25° C./60% RH (Test 2). Checks were made of the parameters indicated in Tables 8 and 9 following the times T0-T6 identified as: T0=moment of insertion of the air-conditioned environment, T1=after one month from the moment T0, T2=after two months from the moment T0, T3=after three months from the time T0, T4=after four months from the time T0, T5=after five months from the time T0, T6=after six months from the time T0.

[2] = Bulk density (Ph. Eur. 2.2.42)
Experimental: As regards the bulk density outlined above, in particular the poured bulk density, such parameter is measured according to the European Pharmacopoeia reference standard (Ph. EUR.), current edition 2.2.42, in force at the priority date of this patent application. In the context of the present invention, the expression “bulk” implies that the powder density value is calculated in a manner formally analogous to an absolute density (such as for a solid body or for a liquid). However, since a powder has empty inter-particle spaces, the total volume occupied by the powder (i.e. its outer bulk), thus including the inter-particle spaces between the various particles, should be taken into account when evaluating bulk density. More precisely, according to the aforementioned standard, a 100 ml class A graduated flask is filled and brought to volume with the powder particles, after which the bulk density is calculated as the ratio between the weight of the powder inside the flask and the volume (100 ml) occupied by that weight of the powder particles. Mannitol powder is a poorly flowing powder, which has a certain tendency, just like all fine powders, to agglomerate under pressure. […]

[3] = Dissolution study of mannitol powder in non-carbonated commercial waters; settings: 150 g of mannitol in 900 ml of water, weakly acidic or neutral pH
Excerpt: The solubility of the mannitol powder was then studied in the following three types of non-carbonated commercial waters: • Sangemini: PH at source 6.2; • Antica Fonte Boario: PH at source 7.0; • Panna Toscana: pH at source 8.0.

[4] = Accelerated stability 40° C./75% RH in heat-sealed envelope; settings: accelerated stability conditions
Experimental: as §1

**Q.** Which “measured parameters over the test” value [1] does the source give for `OC[C@@H](O)[C@@H](O)[C@H](O)[C@H](O)CO` [mannitol, Mannitol] here?
**A.** remained stable

**Q.** What about the transient density ([2]; after passing through 3 mm mesh of the sieve shaker, measured in the laboratory) of the same molecule?
**A.** about 0.73 g/ml

**Q.** What about the poured bulk density ([2]; coherent mass before the drum centrifugal sieve shaker) of the same molecule?
**A.** about 0.60 g/ml

**Q.** What about the complete dissolution time [3] of the same molecule?
**A.** more than 6 minutes

**Q.** And the “measured parameters over the test” value [4]?
**A.** remained stable
